Assay results published in BindingDB's records for doi:10.1016/j.bmc.2004.09.055 (Crefsip, 2005).

biological target: Aspartate--tRNA ligase (Escherichia coli (strain K12), UniProt P21889); assay: Determination of the Inhibition Type and Constant (Ki); settings: pH 7.5; 37 °C
Procedure: The Km and Kappm for the amino acid substrate were first calculated from Lineweaver-Burk plots. The Ki values were calculated from the Kappm vs [I] plot. The Ki values for the inhibitors with respect for the amino acid substrates were determined by measuring the apparent Km for the amino acid in the presence of saturating concentrations of both ATP and tRNA, and of various fixed concentrations of the inhibitor.

Sequence of Aspartate--tRNA ligase (P21889 whole entry): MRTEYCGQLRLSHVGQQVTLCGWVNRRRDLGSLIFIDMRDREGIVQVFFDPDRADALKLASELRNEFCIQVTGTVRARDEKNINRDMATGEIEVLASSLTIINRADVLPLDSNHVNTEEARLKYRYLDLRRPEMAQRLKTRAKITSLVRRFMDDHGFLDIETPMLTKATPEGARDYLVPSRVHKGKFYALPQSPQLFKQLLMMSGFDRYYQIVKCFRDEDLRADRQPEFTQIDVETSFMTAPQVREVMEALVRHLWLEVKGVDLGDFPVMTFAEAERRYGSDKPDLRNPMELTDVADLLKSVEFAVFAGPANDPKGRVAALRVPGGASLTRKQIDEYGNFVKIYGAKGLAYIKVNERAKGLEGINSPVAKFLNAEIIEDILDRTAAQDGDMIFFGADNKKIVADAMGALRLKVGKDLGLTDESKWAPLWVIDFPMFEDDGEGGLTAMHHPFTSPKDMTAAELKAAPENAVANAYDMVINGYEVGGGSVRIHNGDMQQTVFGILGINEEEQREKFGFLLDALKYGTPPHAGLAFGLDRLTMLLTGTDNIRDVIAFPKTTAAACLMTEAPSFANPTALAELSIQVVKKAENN

Ki | SMILES
123 nM | Nc1ncnc2c1ncn2[C@@H]1O[C@H](COP(=O)(O)CC(=O)C(N)CC(=O)O)[C@@H](O)[C@H]1O (stereo partly drawn) [3-amino-5-({[(2R,3S,4R,5R)-5-(6-amino-9H-purin-9-yl)-3,4-dihydroxyoxolan-2-yl]methoxy}(hydroxy)phosphoryl)-4-oxopentanoic acid]
15 nM | Nc1ncnc2c1ncn2[C@@H]1O[C@H](COS(=O)(=O)NC(=O)C(N)CC(=O)O)[C@@H](O)[C@H]1O (stereo partly drawn) [3-amino-4-[({[(2R,3S,4R,5R)-5-(6-amino-9H-purin-9-yl)-3,4-dihydroxyoxolan-2-yl]methoxy}sulfonyl)amino]-4-oxobutanoic acid]

SMILES | Ki
Nc1ncnc2c1ncn2[C@@H]1O[C@H](COP(=O)(O)OC[C@@H](N)CC(=O)O)[C@@H](O)[C@H]1O [(3S)-3-amino-4-[({[(2R,3S,4R,5R)-5-(6-amino-9H-purin-9-yl)-3,4-dihydroxyoxolan-2-yl]methoxy}(hydroxy)phosphoryl)oxy]butanoic acid] | 45000 nM
